Here are results for 19 molecules from patent publication US12221436B2, “Anthranilamides, their use as insecticide and processes for preparing the same” (PI INDUSTRIES LTD., priority 2018, dated 2025).

What all share (format): in vivo
The subject of one assay is Myzus persicae. The assay is described as follows: Example E: Myzus persicae, leaf dip method (capsicum leaves). To be noted: foliar, third instar nymphs, 72 h after release, dead and moribund combined, read-out: percent mortality. On the procedure:
(§1) Test solutions were prepared according to the procedure described herein below (500 PPM):
(§2) • 1. Eppendorf Vortex mixer (ThermoMixer C) and 1.5 mL Eppendorf tubes • 2. Beaker—100 mL • 3. Micro-pipette Reagents: • 1. Surfactant Solution • 2. De-mineralized (DM) Water Procedure: • 1. Weigh 10 mg of the compound of the present invention to be tested in an Eppendorf Tube. • 2. Add 200 mg of the Surfactant Solution into the tube. • 3. Fix the tube in Eppendorf Vortex mixer and start vortexing at 2000 rpm. • 4. Mix on Vortex mixer for 30 min. After 30 min, observe the sample over a microscope at 400× resolution. • 5. Add 1.0 mL DM water into the tube, close the cap, shake the tube thoroughly and transfer the contents, along with the beads, into a beaker. • 6. To rinse the tube, add another 1.0 mL of DM water into the tube, close the cap, shake well and transfer this into the same beaker. • 7. Repeat […] one more time so that the tube is rinsed well and all the compound of the present invention is transferred to the beaker. • 8. Add 16.8 mL of DM water into the beaker and stir well. • 9. Immediately use this sample for biological testing. • 10. Further dilutions can be prepared by taking appropriate quantity of the aliquot of Step 8, immediately after stirring, and diluting as per requirement. The sample solution must be well mixed just before biological testing.
Leaf dip method was used for screening, wherein the required quantity of the compounds were weighed and dissolved in the test solution into the tube and vortex at 2000 rpm with Zirconia beads for 90 min and for proper mixing, then mixed with 0.01% Triton-X solution to get the desired test concentration. Capsicum leaves were dipped in the solution for 10 seconds, shade dried for 20 min and then leaves were kept in glass units with petiole dipped in water. Known numbers of third instar nymphs were released and were kept in the plant growth chamber at a temperature of 25° C. and Relative Humidity of 70%. Observations on dead, moribund and live nymphs were recorded at 72 h after the release. Percent mortality was calculated by combining dead and moribund nymphs. The following compound numbers

In another assay the test system is Helicoverpa armigera. Briefly: Example A: Helicoverpa armigera, diet incorporation method. As to conditions: third instar larvae, 96 h after release, dead and moribund combined, read-out: percent mortality. As for the experimental part:
as §1, §2
(§3) Diet incorporation method was used, in which the semi-synthetic diet was incorporated into the test solution when the temperature is approximately 50° C. in the bioassay containers and stirred thoroughly for properly mixing and then was allowed to cool for 30 min. The solidified diet was cut into equal pieces, and then each piece was transferred in one cell in Bio-assay trays. A single third instar starved larva was released into each of these cells of bioassay trays and the tray was covered with the lid. The bio-assay trays were kept under laboratory conditions at a temperature of 25° C. and Relative Humidity of 70%. Observations on dead, moribund and live larvae were recorded at 96 h after the release of larvae. Percent mortality was calculated by combining dead and moribund larvae. The following compound numbers

The test system of a further assay is Plutella xylostella. The assay is described as follows: whole plant or invertebrate. As to conditions: in Brassica oleracea, foliar, second instar larvae, 72 h after release, dead and moribund combined, read-out: percent mortality. On the procedure: as §1, §2
Leaf dip method was used for screening, wherein the required quantity of the compounds were weighed and dissolved in the test solution into the tube and vortex at 2000 rpm with Zirconia beads for 90 min for proper mixing, then mixed with 0.01% Triton-X solution to get the desired test concentration. and Cabbage leaves were dipped in the solution for 10 seconds, shade dried for 20 min and then transferred to bioassay trays. Single second instar larvae were released into each cell and the tray was covered with lid. The bio-assay trays were kept under laboratory conditions at a temperature of 25° C. and Relative Humidity of 70%. Observations on dead, moribund and live larvae were recorded at 72 h after the release. Percent mortality was calculated by combining dead and moribund larvae. The following compound numbers

In another assay the test system is Spodoptera litura. Briefly: Example B: Spodoptera litura, diet incorporation method. To be noted: third instar larvae, 96 h after release, dead and moribund combined, read-out: percent mortality. As for the experimental part: as §1, §2
as §3, with “which” for “which the”, “solutions” for “solution”

Structures are written as SMILES.

Usually mortality stands for the share of the test organisms that died.

Take `Cc1cc(Cl)cc(C(=O)NC(C)C)c1NC(=O)c1cc(OC2C[S+]([O-])C2)nn1-c1ncccc1Cl` (stereo not drawn) [Compound 117, N-(4-chloro-2-(isopropylcarbamoyl)-6-methylphenyl)-1-(3-chloropyridin-2-yl)-3-((1-oxidothietan-3-yl)oxy)-1H-pyrazole-5-carboxamide]: the mortality at 300 ppm in the assay with Myzus persicae is more than 50%.

Regarding `CONC(=O)c1c(NC(=O)c2cc(N3CC(F)(F)C3)nn2-c2ncccc2Cl)c(C)cc2ccnn12` [Compound 85, 6-(1-(3-chloropyridin-2-yl)-3-(3,3-difluoroazetidin-1-yl)-1H-pyrazole-5-carboxamido)-N-methoxy-5-methylpyrazolo[1,5-a]pyridine-7-carboxamide], the mortality at 300 ppm in the assay with Helicoverpa armigera and in the assay on Plutella xylostella was more than 70% each time. As to `Cc1cc(Cl)cc(C(=O)NCC2CC2)c1NC(=O)c1cc(OC2C[S+]([O-])C2)nn1-c1ncccc1Cl` (stereo not drawn) [Compound 129, N-(4-chloro-2-((cyclopropylmethyl)carbamoyl)-6-methylphenyl)-1-(3-chloropyridin-2-yl)-3-((1-oxidothietan-3-yl)oxy)-1H-pyrazole-5-carboxamide], in the assay with Myzus persicae, the mortality at 300 ppm was more than 50%.

As to `C=CCNC(=O)c1cc(Cl)cc(Br)c1NC(=O)c1cc(OC2CSC2)nn1-c1ncccc1Cl` [Compound 92, N-(2-(allylcarbamoyl)-6-bromo-4-chlorophenyl)-1-(3-chloropyridin-2-yl)-3-(thietan-3-yloxy)-1H-pyrazole-5-carboxamide], in the assay on Myzus persicae, the mortality at 300 ppm is more than 50%. In the case of `O=C(NCC(F)(F)F)c1cc(Cl)cc(Cl)c1NC(=O)c1cc(OC2CSC2)nn1-c1ncccc1Cl` [Compound 132, 1-(3-chloropyridin-2-yl)-N-(2,4-dichloro-6-((2,2,2-trifluoroethyl)carbamoyl)phenyl)-3-(thietan-3-yloxy)-1H-pyrazole-5-carboxamide], the mortality at 300 ppm in the assay on Myzus persicae was more than 50%. Take `Cc1cc2ccnn2c(C(=O)NCC2CC2)c1NC(=O)c1cc(OC2CSC2)nn1-c1ncccc1Cl` [Compound 80, 6-(1-(3-chloropyridin-2-yl)-3-(thietan-3-yloxy)-1H-pyrazole-5-carboxamido)-N-(cyclopropylmethyl)-5-methylpyrazolo[1,5-a]pyridine-7-carboxamide]: the mortality at 300 ppm in the assay with Helicoverpa armigera, in the assay with Spodoptera litura and with Plutella xylostella was more than 70% each time. In the case of `CNC(=O)c1c(NC(=O)c2cc(N3CC(F)(F)C3)nn2-c2ncccc2Cl)c(C)cc2ccnn12` [Compound 79, 6-(1-(3-chloropyridin-2-yl)-3-(3,3-difluoroazetidin-1-yl)-1H-pyrazole-5-carboxamido)-N,5-dimethylpyrazolo[1,5-a]pyridine-7-carboxamide], the mortality at 300 ppm in the assay with Helicoverpa armigera, in the assay with Spodoptera litura and with Plutella xylostella was more than 70% each time.

With `Cc1cc2ccnn2c(C(=O)NCC2CC2)c1NC(=O)c1cc(N2CC(F)(F)C2)nn1-c1ncccc1Cl` [Compound 78, 6-(1-(3-chloropyridin-2-yl)-3-(3,3-difluoroazetidin-1-yl)-1H-pyrazole-5-carboxamido)-N-(cyclopropylmethyl)-5-methylpyrazolo[1,5-a]pyridine-7-carboxamide], the mortality at 300 ppm with Helicoverpa armigera, with Spodoptera litura and in the assay on Plutella xylostella was more than 70% in each case. In the case of `Cc1cc2ccnn2c(C(=O)NC2CC2)c1NC(=O)c1cc(OC2CSC2)nn1-c1ncccc1Cl` [Compound 138, 6-(1-(3-chloropyridin-2-yl)-3-(thietan-3-yloxy)-1H-pyrazole-5-carboxamido)-N-cyclopropyl-5-methylpyrazolo[1,5-a]pyridine-7-carboxamide], the mortality at 300 ppm with Spodoptera litura was more than 70%. Consider `CCNC(=O)c1c(NC(=O)c2cc(OC3CSC3)nn2-c2ncccc2Cl)c(C)cc2ccnn12` [Compound 137, 6-(1-(3-chloropyridin-2-yl)-3-(thietan-3-yloxy)-1H-pyrazole-5-carboxamido)-N-ethyl-5-methylpyrazolo[1,5-a]pyridine-7-carboxamide], for which, in the assay with Plutella xylostella, the mortality at 300 ppm is more than 70%. As to `CCCNC(=O)c1c(NC(=O)c2cc(OC3CSC3)nn2-c2ncccc2Cl)c(C)cc2ccnn12` [Compound 108, 6-(1-(3-chloropyridin-2-yl)-3-(thietan-3-yloxy)-1H-pyrazole-5-carboxamido)-5-methyl-N-propylpyrazolo[1,5-a]pyridine-7-carboxamide], the mortality at 300 ppm with Plutella xylostella was more than 70%.

With `C=CCNC(=O)c1cc(Cl)cc(C)c1NC(=O)c1cc(OC2CSC2)nn1-c1ncccc1Cl` [Compound 98, N-(2-(allylcarbamoyl)-4-chloro-6-methylphenyl)-1-(3-chloropyridin-2-yl)-3-(thietan-3-yloxy)-1H-pyrazole-5-carboxamide], in the assay on Myzus persicae, the mortality at 300 ppm is more than 50%. In the case of `Cc1cc2ccnn2c(C(=O)NC(C)C2CC2)c1NC(=O)c1cc(OC2CSC2)nn1-c1ncccc1Cl` (stereo not drawn) [Compound 139, 6-(1-(3-chloropyridin-2-yl)-3-(thietan-3-yloxy)-1H-pyrazole-5-carboxamido)-N-(1-cyclopropylethyl)-5-methylpyrazolo[1,5-a]pyridine-7-carboxamide], the mortality at 300 ppm with Helicoverpa armigera and in the assay on Spodoptera litura was more than 70% throughout. `Cc1cc(Cl)cc(C(=O)NC2CC2)c1NC(=O)c1cc(OC2C[S+]([O-])C2)nn1-c1ncccc1Cl` (stereo not drawn) [Compound 128, N-(4-chloro-2-(cyclopropylcarbamoyl)-6-methylphenyl)-1-(3-chloropyridin-2-yl)-3-((1-oxidothietan-3-yl)oxy)-1H-pyrazole-5-carboxamide]: the mortality at 300 ppm in the assay on Myzus persicae is more than 50%.

`CCNC(=O)c1c(NC(=O)c2cc(N3CC(F)(F)C3)nn2-c2ncccc2Cl)c(C)cc2ccnn12` [Compound 84, 6-(1-(3-chloropyridin-2-yl)-3-(3,3-difluoroazetidin-1-yl)-1H-pyrazole-5-carboxamido)-N-ethyl-5-methylpyrazolo[1,5-a]pyridine-7-carboxamide]: the mortality at 300 ppm with Spodoptera litura was more than 70%. With `CONC(=O)c1cc(Cl)cc(Br)c1NC(=O)c1cc(OC2CSC2)nn1-c1ncccc1Cl` [Compound 91, N-(2-bromo-4-chloro-6-(methoxycarbamoyl)phenyl)-1-(3-chloropyridin-2-yl)-3-(thietan-3-yloxy)-1H-pyrazole-5-carboxamide], the mortality at 300 ppm in the assay with Myzus persicae is more than 50%. Regarding `COCCNC(=O)c1c(NC(=O)c2cc(OC3CSC3)nn2-c2ncccc2Cl)c(C)cc2ccnn12` [Compound 156, 6-(1-(3-chloropyridin-2-yl)-3-(thietan-3-yloxy)-1H-pyrazole-5-carboxamido)-N-(2-methoxyethyl)-5-methylpyrazolo[1,5-a]pyridine-7-carboxamide], in the assay on Helicoverpa armigera, the mortality at 300 ppm is more than 70%. Consider `CC(C)(C)NC(=O)c1cc(Cl)cc(Br)c1NC(=O)c1cc(OC2CSC2)nn1-c1ncccc1Cl` [Compound 45, N-(2-bromo-6-(tert-butylcarbamoyl)-4-chlorophenyl)-1-(3-chloropyridin-2-yl)-3-(thietan-3-yloxy)-1H-pyrazole-5-carboxamide], for which the mortality at 300 ppm in the assay with Myzus persicae is more than 50%. In the case of `C=CCNC(=O)c1c(NC(=O)c2cc(N3CC(F)(F)C3)nn2-c2ncccc2Cl)c(C)cc2ccnn12` [Compound 87, N-allyl-6-(1-(3-chloropyridin-2-yl)-3-(3,3-difluoroazetidin-1-yl)-1H-pyrazole-5-carboxamido)-5-methylpyrazolo[1,5-a]pyridine-7-carboxamide], in the assay on Spodoptera litura, the mortality at 300 ppm was more than 70%.
